SMILES strings stand for the structures.

The subject of data set [1] is SK-MEL-5. Description: Antiproliferative activity against human SMARCA4-deficient SK-MEL-5 cells assessed as maximal inhibition of cell growth measured after 7 days by WST-8 assay relative to control. The conditions noted are these: time 7 day. It is filed as functional. (Formazan colour is commonly taken as a measure of viable cells.)
The nature of data set [2]: Plasma concentration in mouse xenografted with human MV4-11 cells at 30 mg/kg, iv single dose measured after 96 hrs by LC-MS/MS analysis. In kind it is ADME, organism-based. (In general: Xenograft models place foreign cells or tissue in a host animal.)
Data set [3] in a line: Drug uptake in tumor of mouse xenografted with human MV4-11 cells at 30 mg/kg, iv single dose measured after 24 hrs by LC-MS/MS analysis. In kind it is ADME, organism-based, Neoplasm. The conditions noted are these: read-out: Drug uptake.

With `Cc1ncsc1-c1ccc([C@H](CN2CCOCC2)NC(=O)[C@@H]2C[C@@H](O)CN2C(=O)[C@@H](n2cc([C@H]3CC[C@H](CN4CCC(c5ccc6c(c5)-n5c(nc(=O)c7c(Cl)cccc75)C65CCCCC5)CC4)CC3)nn2)C(C)(C)C)cc1`, the Imax in data set [1] came out at 95%. This compound showed a concentration at 96 h in data set [2] of 56 ng/mL. The concentration at 24 h in data set [3] came out at 2290 ng/mL.
